Assay results from patent US4207343A, “1-Phenyl-3-(substituted phenoxy)propylamines” (priority 1978, dated 1980).

Experiments:
[1] = tested on: serotonin uptake by synaptosomes from rat brain; test: Blockage of serotonin uptake in vitro by synaptosomes from rat brain (Table 1); assay type: biochemical; conditions: serotonin 0.1 μuM, read-out: IC50 Serotonin (concentration that blocks uptake by 50 percent)
Excerpt: (§1) This blockade is shown both in vitro using radioactive labelled compounds to determine the amount of monoamine uptake by synaptosomes from rat brain, and in vivo by a variety of methods using the procedure of Wong and Bymaster, Biochem. Pharmacol., 25, 1978 (1976). Among the physiologically active monoamines whose uptake is blocked by the compounds of this invention are included serotonin, norepinephrine and dopamine (3,4-dihydroxyphenylethylamine). […] Table 1 which follows sets forth the results of some of the in vitro determinations of the blockage of monoamine uptake by the compounds of this invention. In the table, column 1 gives the R substituent on the 1-phenylpropylamine, colums 2 and 3, the R^1 and R^2 substituents on the amine nitrogen and columns […], the concentration in micrograms per ml. that blocks the uptake of a particular amine by 50 percent (IC50) for the amines, serotonin and norephinephrine. At the head of each column is given the concentration of the particular monoamine used in the experiment.

[2] = tested on: norepinephrine uptake by synaptosomes from rat brain; test: Blockage of norepinephrine uptake in vitro by synaptosomes from rat brain (Table 1); assay type: biochemical; conditions: norepinephrine 0.48 μuM, read-out: IC50 Norepinephrine (concentration that blocks uptake by 50 percent)
Excerpt: as §1

[3] = target: uptake of serotonin in cortical synaptosomes (Rattus norvegicus, UniProt P31652); test: Inhibition of serotonin uptake in cortical synaptosomes, kinetics; assay type: biochemical, Sprague-Dawley rats
Experimental: (§3) The uptake of serotonin in cortical synaptosomes and in platelets of human plasma in the presence of this compound were studied. Corticosynaptosomes were prepared as follows: Sprague-Dawley rats weighing about 150 g. were decapitated and their brains immediately removed and dissected. Crude synaptosomes were prepared from a 10 percent homogenate in 0.32 M scurose and in 10 μM glucose by differential centrifugation according to the procedure of Wong and Bymaster (loc. cit.).

[4] = target: T1, uptake of norepinephrine (Rattus norvegicus, UniProt Q63380); test: Inhibition of norepinephrine uptake in synaptosomes, kinetics; assay type: biochemical, Sprague-Dawley rats
T1 construct: from tissue; host or cells: synaptosomes of Sprague-Dawley rat brain (cortex, by 'similar experiment')
Experimental: as §3

[5] = tested on: uptake of serotonin by platelets; conditions: human platelet-rich plasma; estimated value
Experimental: A study of the uptake of serotonin from platelets was carried out as follows: platelet-rich plasma from human volunteers was prepared according to the method of Sneddon, Brit. […] The platelet uptake of serotonin was determined by the procedure of Horng and Wong, Biochem. Pharmacol., 25, 865 (1976).

[6] = tested on: uptake of physiologically active monoamines; test: Blocking of uptake of physiologically active monoamines (serotonin, norepinephrine, dopamine); conditions: in vitro and in vivo
Excerpt: as §1

[7] = tested on: uptake of serotonin by hypothalamic synaptosomes; test: In vivo inhibition of serotonin uptake by hypothalamic synaptosomes after intraperitoneal injection; conditions: ip, as hydrochloride salt, read-out: calculated ED50 (effective dose), inhibition of serotonin uptake by hypothalamic synaptosomes
Experimental: (§2) There was also a decrease in norepinephrine uptake at a 100 mg./kg level but the reduction was less than 50% at this high dose level.

[8] = tested on: serotonin uptake versus norepinephrine uptake; test: Relative effectiveness in inhibiting serotonin versus norepinephrine uptake
[9] = tested on: norepinephrine uptake; test: In vivo decrease in norepinephrine uptake after intraperitoneal injection; conditions: 100 mg./kg level, hydrochloride salt
Experimental: as §2

[10] = target: dopamine uptake from synaptosomes isolated from corpus striatum (Rattus norvegicus, UniProt P23977); test: Inhibition of dopamine uptake in synaptosomes isolated from corpus striatum
[11] = tested on: chronic undifferentiated schizophrenic patients; conditions: oral administration, cited from earlier work

T1 sequence (Q63380 1-617): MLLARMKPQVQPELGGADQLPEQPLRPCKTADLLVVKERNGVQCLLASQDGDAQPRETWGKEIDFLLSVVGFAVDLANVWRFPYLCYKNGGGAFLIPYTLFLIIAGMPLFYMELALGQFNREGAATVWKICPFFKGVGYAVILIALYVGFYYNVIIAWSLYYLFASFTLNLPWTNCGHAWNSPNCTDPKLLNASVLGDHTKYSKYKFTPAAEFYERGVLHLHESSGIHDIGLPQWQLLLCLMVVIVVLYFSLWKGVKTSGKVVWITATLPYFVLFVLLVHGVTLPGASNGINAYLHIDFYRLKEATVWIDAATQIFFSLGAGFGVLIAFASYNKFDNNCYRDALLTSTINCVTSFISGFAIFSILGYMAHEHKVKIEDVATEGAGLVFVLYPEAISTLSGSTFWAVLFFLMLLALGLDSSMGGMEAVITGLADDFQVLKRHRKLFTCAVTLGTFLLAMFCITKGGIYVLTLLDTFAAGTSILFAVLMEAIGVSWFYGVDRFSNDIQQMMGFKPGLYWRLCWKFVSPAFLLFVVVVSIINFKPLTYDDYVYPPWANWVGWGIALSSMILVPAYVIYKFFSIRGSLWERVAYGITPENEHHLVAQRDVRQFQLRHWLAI
Chain of uptake of serotonin in cortical synaptosomes (P31652 whole entry): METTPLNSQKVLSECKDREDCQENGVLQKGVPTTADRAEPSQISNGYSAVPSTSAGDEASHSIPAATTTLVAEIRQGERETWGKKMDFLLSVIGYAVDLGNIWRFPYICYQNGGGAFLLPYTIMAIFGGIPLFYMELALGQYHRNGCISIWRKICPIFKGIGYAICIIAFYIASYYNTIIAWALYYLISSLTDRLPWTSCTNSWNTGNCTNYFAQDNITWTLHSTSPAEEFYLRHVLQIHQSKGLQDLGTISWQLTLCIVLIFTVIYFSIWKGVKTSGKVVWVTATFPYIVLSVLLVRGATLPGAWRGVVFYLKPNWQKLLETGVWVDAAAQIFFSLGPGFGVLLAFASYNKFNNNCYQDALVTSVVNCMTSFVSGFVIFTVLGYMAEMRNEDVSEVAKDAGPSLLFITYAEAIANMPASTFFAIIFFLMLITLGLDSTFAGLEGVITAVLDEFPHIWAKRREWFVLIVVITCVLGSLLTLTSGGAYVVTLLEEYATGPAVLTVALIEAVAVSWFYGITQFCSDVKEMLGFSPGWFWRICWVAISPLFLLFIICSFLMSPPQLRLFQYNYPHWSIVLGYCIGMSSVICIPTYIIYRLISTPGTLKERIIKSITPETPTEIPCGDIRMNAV
Chain of dopamine uptake from synaptosomes isolated from corpus striatum (P23977 whole entry): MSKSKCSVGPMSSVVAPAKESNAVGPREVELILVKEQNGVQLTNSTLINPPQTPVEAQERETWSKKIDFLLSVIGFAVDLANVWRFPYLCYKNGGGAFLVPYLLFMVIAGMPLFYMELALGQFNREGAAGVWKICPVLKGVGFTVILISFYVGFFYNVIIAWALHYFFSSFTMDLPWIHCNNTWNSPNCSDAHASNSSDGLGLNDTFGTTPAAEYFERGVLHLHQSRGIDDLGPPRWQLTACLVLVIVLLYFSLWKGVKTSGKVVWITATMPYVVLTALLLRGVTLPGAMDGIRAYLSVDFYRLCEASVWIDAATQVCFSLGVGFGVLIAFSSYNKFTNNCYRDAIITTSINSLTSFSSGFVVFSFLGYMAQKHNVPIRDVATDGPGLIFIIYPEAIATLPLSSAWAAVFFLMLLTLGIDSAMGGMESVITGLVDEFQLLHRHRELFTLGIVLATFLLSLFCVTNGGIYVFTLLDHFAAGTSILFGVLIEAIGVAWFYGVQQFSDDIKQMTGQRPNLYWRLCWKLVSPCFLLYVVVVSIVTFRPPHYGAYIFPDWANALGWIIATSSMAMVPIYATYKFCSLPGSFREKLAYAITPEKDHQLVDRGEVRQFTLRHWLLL

SMILES	IC50 [1]	IC50 [2]	also measured
COc1ccccc1OCCC(c1ccccc1)N(C)C (stereo not shown) [o-anisyl, CH3, CH3, N,N-dimethyl 3-(o-anisyloxy)-1-phenylpropylamine]	100 nM	300 nM	
COc1cccc(OCCC(N)c2ccccc2)c1 (stereo not shown) [m-anisyl, H, H, 1-Phenyl-3-(m-anisyloxy)propylamine]	2000 nM	3000 nM	
CN(C)C(CCOc1ccccc1)c1ccccc1 (stereo not shown) [phenyl, CH3, CH3, N,N-dimethyl 1-phenyl-3-phenoxypropylamine]	1000 nM	700 nM	
NC(CCOc1ccccc1)c1ccccc1 (stereo not shown) [phenyl, H, H, 1-Phenyl-3-phenoxypropylamine]	5600 nM	560 nM	
Cc1cccc(OCCC(N)c2ccccc2)c1 (stereo not shown) [m-tolyl, H, H]	1400 nM	5700 nM	
CNC(CCOc1ccc(C(F)(F)F)cc1)c1ccccc1 (stereo not shown) [p-trifluoromethylphenyl, CH3, H, N-methyl 1-phenyl-3-(p-trifluoromethylphenoxy)-propylamine]	210 nM	10000 nM	
Cc1cccc(OCCC(c2ccccc2)N(C)C)c1 (stereo not shown) [m-tolyl, CH3, CH3]	80 nM	5100 nM	
Cc1ccc(OCCC(c2ccccc2)N(C)C)cc1 (stereo not shown)	80 nM	5000 nM	mode of inhibition of serotonin uptake ([3]; 0.01, 0.05 and 0.1 μM): competitively inhibited uptake of serotonin; Ki ([3]; cortical synaptosomes, compound at 0.01, 0.05 and 0.1 μM, competitive, read-out: inhibitor constant KI, serotonin uptake): 60 nM; mode of inhibition of norepinephrine uptake [4]: competitively inhibited the uptake of norepinephrine; Ki ([4]; synaptosomes, competitive, read-out: inhibitory constant KI, norepinephrine uptake): 2200 nM; estimated IC50, serotonin uptake by platelets [5]: 14 nmol; block of uptake of monoamines (in words) [6]: particularly active in inhibiting the uptake of biogenic amines; ED50 [7]: 12 mg/kg; relative effectiveness, serotonin versus norepinephrine uptake (in words) [8]: far more effective in inhibiting serotonin uptake than in inhibiting norepinephrine uptake; reduction in norepinephrine uptake [9]: less than 50%; Ki [10]: 2500 nM
CNC(CCOc1ccccc1)c1ccccc1 (stereo not shown) [phenyl, CH3, H, N-methyl 3-phenoxy-1-phenylpropylamine]	1000 nM	360 nM	
CNC(CCOc1ccccc1OC)c1ccccc1 (stereo not shown) [o-anisyl, CH3, H, N-methyl 1-phenyl-3-(o-anisyloxy)propylamine]	500 nM	500 nM	
COc1ccccc1OCCC(N)c1ccccc1 (stereo not shown) [o-anisyl, H, H, 1-phenyl-3-(o-anisyloxy)propylamine]	4300 nM	1400 nM	
N[C@@H](Cc1c[nH]c2ccc(O)cc12)C(=O)O [l-5-hydroxytryptophane]			number of schizophrenic patients improved, of 7 ([11]; 6 of 7 patients): 6 patients; improvement in schizophrenic patients (in words) [11]: mild to moderate improvement
COc1ccc(OCCC(c2ccccc2)N(C)C)cc1 (stereo not shown) [p-anisyl, CH3, CH3, N,N-dimethyl 3-(p-anisyloxy)-1-phenylpropylamine]	280 nM	5100 nM	
NC(CCOc1ccc(C(F)(F)F)cc1)c1ccccc1 (stereo not shown) [p-trifluoromethylphenyl, H, H, 1-phenyl-3-(p-trifluoromethylphenoxy)propylamine]	320 nM	10000 nM	
CN(C)C(CCOc1ccc(C(F)(F)F)cc1)c1ccccc1 (stereo not shown) [p-trifluoromethylphenyl, CH3, CH3, N,N-dimethyl 1-phenyl-3-(p-trifluoromethylphenoxy)-propylamine]	210 nM	10000 nM	
COc1ccc(OCCC(N)c2ccccc2)cc1 (stereo not shown) [p-anisyl, H, H, 3-(p-anisyloxy)-1-phenylpropylamine]	350 nM	7000 nM	
Cc1ccccc1OCCC(N)c1ccccc1 (stereo not shown) [o-tolyl, H, H, 3-(o-cresol)-1-phenylpropylamine]	350 nM	4600 nM	
Cc1ccc(OCCC(N)c2ccccc2)cc1 (stereo not shown) [p-tolyl, H, H]	400 nM	2100 nM	
